Measured values as given in patent US11813306B2, “Cyclic tetramer compounds as proprotein convertase subtilisin/kexin type 9 (PCSK9) inhibitors for the treatment of metabolic disorders” (NOVARTIS AG, priority 2018, dated 2023).
pIC50: −log10 of the molar value.

Target: human PCSK9 (Homo sapiens, UniProt Q8NBP7)
Assay: PCSK9 ligand binding assay (TR-FRET): interference with binding of human PCSK9 to human LDLR
Conditions: for pIC50: Human PCSK9 Alexa Fluor 647 / Human LDLR extracellular domain-Europium Kryptate; for Max % inhibition: efficacy (Amax), 100% = 1 uM unlabeled human PCSK9, 0% = DMSO
Procedure, shortened: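 Read-out was TR-FRET ratio (665 nm over 615 nm, 330 nm excitation) between Alexa Fluor 647-human PCSK9 (16 nM added) and Europium Kryptate-human LDLR ectodomain (4 nM added). Compound and PCSK9 were mixed 30 min before LDLR, then incubated 2 h. Inhibition was normalised to DMSO and unlabelled-PCSK9 controls, giving IC50 and Amax.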

human PCSK9, sequence (Q8NBP7 153-692): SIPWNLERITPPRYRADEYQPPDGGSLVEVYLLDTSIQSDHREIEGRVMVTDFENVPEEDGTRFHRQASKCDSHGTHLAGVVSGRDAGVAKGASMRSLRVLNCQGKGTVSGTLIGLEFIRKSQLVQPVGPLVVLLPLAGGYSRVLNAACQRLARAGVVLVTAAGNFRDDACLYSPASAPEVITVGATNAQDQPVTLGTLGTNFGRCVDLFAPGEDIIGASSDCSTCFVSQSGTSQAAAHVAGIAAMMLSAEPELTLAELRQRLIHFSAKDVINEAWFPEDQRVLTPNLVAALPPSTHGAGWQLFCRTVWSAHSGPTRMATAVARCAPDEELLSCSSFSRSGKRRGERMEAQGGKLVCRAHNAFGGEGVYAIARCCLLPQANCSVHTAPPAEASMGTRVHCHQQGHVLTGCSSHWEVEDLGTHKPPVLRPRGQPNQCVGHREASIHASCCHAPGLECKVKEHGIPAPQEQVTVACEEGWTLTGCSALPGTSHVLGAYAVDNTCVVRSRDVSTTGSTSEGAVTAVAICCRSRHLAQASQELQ
human PCSK9, sequence (Q8NBP7 31-152 partner limits assumed): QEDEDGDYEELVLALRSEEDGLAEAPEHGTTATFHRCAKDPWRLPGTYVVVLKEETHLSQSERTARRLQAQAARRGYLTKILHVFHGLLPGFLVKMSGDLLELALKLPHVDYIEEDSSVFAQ

pIC50	Max % inhibition [%]	Structure (SMILES)
9.15	107.4	C[C@H]1C(=O)N[C@@H](CO)C(=O)N(C)[C@@]2(Cc3ccc(Cl)cc3)CCCN(C2)C(=O)[C@H](Cc2ccccc2)CC(=O)N1Cc1ccc(Cl)cc1Oc1ccc(-c2cnc(CN(C)C)n2C)cc1 [Compound 53, (3R, 7S, 10S, 13R)-3-benzyl-6-(4-chloro-2-(4-(2-((dimethylamino)methyl)-1-methyl-1H-imidazol-5-yl)phenoxy)benzyl)-13-(4-chlorobenzyl)-10-(hydroxymethyl)-7,12-dimethyl-1,6,9,12-tetraazabicyclo[11.3.1]heptadecane-2,5,8,11-tetraone]
8.96	98.3	C[C@H]1C(=O)N[C@@H](CO)C(=O)N[C@@]2(Cc3ccc(Cl)cc3)CCCN(C2)C(=O)[C@H]([C@H]2CCc3ccccc32)CC(=O)N1Cc1ccc(Cl)cc1Oc1ccc(-c2cnc(CN(C)C)n2C)cn1 [Compound 31, (3S, 7S, 10S, 13R)-6-(4-chloro-2-((5-(2-((dimethylamino)methyl)-1-methyl-1H-imidazol-5-yl)pyridin-2-yl)oxy)benzyl)-13-(4-chlorobenzyl)-3-((R)-2,3-dihydro-1H-inden-1-yl)-10-(hydroxymethyl)-7-methyl-1,6,9,12-tetraazabicyclo[11.3.1]heptadecane-2,5,8,11-tetraone]
9.24	103.6	COC[C@@H]1NC(=O)[C@H](C)N(Cc2ccc(Cl)cc2Oc2ccc(-c3cnc(CN4CC[C@H](O)C4)n3C)cc2)C(=O)C[C@@H](Cc2ccccc2)C(=O)N2CCC[C@@](Cc3ccc(Cl)cc3)(C2)NC1=O.Cl [Compound 59, (3R, 7S, 10S, 13R)-3-benzyl-6-(4-chloro-2-(4-(2-(((S)-3-hydroxypyrrolidin-1-yl)methyl)-1-methyl-1H-imidazol-5-yl)phenoxy)benzyl)-13-(4-chlorobenzyl)-10-(methoxymethyl)-7-methyl-1,6,9,12-tetraazabicyclo+11.3.1+heptadecane-2,5,8,11-tetraone]
8.11	105.6	C[C@@H](c1ccccc1)[C@@H]1CC(=O)N(Cc2ccc(Cl)cc2Oc2ccc(-c3cnc(CN4CCCC4)n3C)cc2)[C@@H](C)C(=O)N[C@@H](CO)C(=O)N(C)[C@H](Cc2ccc(Cl)cc2)CN(C)C1=O.Cl [Compound 107, (2S, 5S, 8R, 12S)-1-(4-chloro-2-(4-(1-methyl-2-(pyrrolidin-1-ylmethyl)-1H-imidazol-5-yl)phenoxy)benzyl)-8-(4-chlorobenzyl)-5-(hydroxymethyl)-2,7,10-trimethyl-12-((R)-1-phenylethyl)-1,4,7,10-tetraazacyclotetradecane-3,6,11,14-tetraone]
8.03	104.6	C[C@H]1C(=O)N[C@@H](CO)C(=O)N(C)[C@H](Cc2ccc(Cl)cc2)CN(C)C(=O)[C@H](Cc2ccccc2)CC(=O)N1Cc1ccc(Cl)cc1Oc1ccc(-c2cnc(CN3CCCC3)n2C)cc1.Cl [Compound 108, (2S, 5S, 8R, 12R)-12-benzyl-1-(4-chloro-2-(4-(1-methyl-2-(pyrrolidin-1-ylmethyl)-1H-imidazol-5-yl)phenoxy)benzyl)-8-(4-chlorobenzyl)-5-(hydroxymethyl)-2,7,10-trimethyl-1,4,7, 10-tetraazacyclotetradecane-3,6,11,14-tetraone]
7.50	94.0	CCc1ccc(CN2C(=O)C[C@@H]([C@@H]3CCc4ccccc43)C(=O)N(C)C[C@@H](Cc3ccc(Cl)cc3)N(C)C(=O)[C@H](CO)NC(=O)[C@@H]2C)c(Oc2ccc(-c3cnc(CN(C)C)n3C)cc2)c1 [Compound 119, (2S,5S,8R,12S)-8-(4-Chlorobenzyl)-12-((S)-2,3-dihydro-1H-inden-1-yl)-1-(2-(4-(2-((dimethylamino)methyl)-1-methyl-1H-imidazol-5-yl)phenoxy)-4-ethylbenzyl)-5-(hydroxymethyl)-2,7,10-trimethyl-1,4,7,10-tetraazacyclotetradecane-3,6,11,14-tetraone]
7.95	82.0	C[C@H](O)[C@@H]1NC(=O)[C@H](C)N(Cc2ccc(Cl)cc2Oc2ccc(-c3cnc(CN(C)C)n3C)cc2)C(=O)C[C@@H](Cc2ccccc2)C(=O)N2CCC[C@@](Cc3ccc(Cl)cc3)(C2)NC1=O [Compound 109, (3R, 7S, 10S, 13R)-3-benzyl-6-(4-chloro-2-(4-(2-((dimethylamino)methyl)-1-methyl-1H-imidazol-5-yl)phenoxy)benzyl)-13-(4-chlorobenzyl)-10-((S)-1-hydroxyethyl)-7-methyl-1,6,9,12-tetraazabicyclo[11.3.1]heptadecane-2,5,8,11-tetraone]
9.82	113.0	C[C@H]1C(=O)N[C@@H](CO)C(=O)N[C@@]2(Cc3ccc(Cl)cc3)CCCN(C2)C(=O)[C@H](CC(F)(F)F)CC(=O)N1Cc1c(F)cc(Cl)cc1Oc1ccc(-c2cnc(CN(C)C3CCC3)n2C)cc1 [Compound 139, (3S, 7S, 10S, 13R)-6-(4-chloro-2-(4-(2-((cyclobutyl(methyl)amino)methyl)-1-methyl-1H-imidazol-5-yl)phenoxy)-6-fluorobenzyl)-13-(4-chlorobenzyl)-10-(hydroxymethyl)-7-methyl-3-(2,2,2-trifluoroethyl)-1,6,9,12-tetraazabicyclo[11.3.1]heptadecane-2,5,8,11-tetraone]
9.29	101.6	C[C@H]1C(=O)N[C@@H](CO)C(=O)N[C@@]2(Cc3ccc(Cl)cc3)CCCN(C2)C(=O)[C@H](Cc2c(F)cccc2F)CC(=O)N1Cc1c(F)cc(Cl)cc1Oc1ccc(-c2cnc(CN(C)C)n2C)cc1 [Compound 34, (3R, 7S, 10S, 13R)-6-(4-chloro-2-(4-(2-((dimethylamino)methyl)-1-methyl-1H-imidazol-5-yl)phenoxy)-6-fluorobenzyl)-13-(4-chlorobenzyl)-3-(2,6-difluorobenzyl)-10-(hydroxymethyl)-7-methyl-1,6,9,12-tetraazabicyclo[11.3.1]heptadecane-2,5,8,11-tetraone]
9.12	113.3	C[C@H]1C(=O)N[C@@H](CO)C(=O)N[C@@]2(Cc3ccc(Cl)cc3)CCCN(C2)C(=O)[C@H](Cc2ccccc2)CC(=O)N1Cc1c(F)cc(F)cc1Oc1ccc(-c2cnc(CN3CCCC3)n2C)cc1 [Compound 75, (3R, 7S, 10S, 13R)-3-benzyl-13-(4-chlorobenzyl)-6-(2,4-difluoro-6-(4-(1-methyl-2-(pyrrolidin-1-ylmethyl)-1H-imidazol-5-yl)phenoxy)benzyl)-10-(hydroxymethyl)-7-methyl-1,6,9,12-tetraazabicyclo[11.3.1]heptadecane-2,5,8,11-tetraone]
9.25	105.9	Cc1cccc(C[C@@H]2CC(=O)N(Cc3ccc(Cl)cc3Oc3ccc(-c4cnc(CN(C)C)n4C)cc3)[C@@H](C)C(=O)N[C@@H](CO)C(=O)N[C@@]3(Cc4ccc(Cl)cc4)CCCN(C3)C2=O)n1 [Compound 41, (3R, 7S, 10S, 13R)-6-(4-chloro-2-(4-(2-((dimethylamino)methyl)-1-methyl-1H-imidazol-5-yl)phenoxy)benzyl)-13-(4-chlorobenzyl)-10-(hydroxymethyl)-7-methyl-3-((6-methylpyridin-2-yl)methyl)-1,6,9,12-tetraazabicyclo[11.3.1]heptadecane-2,5,8,11-tetraone]
9.32	98.3	CC[C@@H]1CC(=O)N(Cc2ccc(Cl)cc2Oc2ccc(-c3cnc(CN4CCCC4)n3C)cc2)[C@@H](C)C(=O)N[C@@H](CO)C(=O)N[C@@]2(Cc3ccc(Cl)cc3)CCCN(C2)C1=O [Compound 26, (3R, 7S, 10S, 13R)-6-(4-chloro-2-(4-(1-methyl-2-(pyrrolidin-1-ylmethyl)-1H-imidazol-5-yl)phenoxy)benzyl)-13-(4-chlorobenzyl)-3-ethyl-10-(hydroxymethyl)-7-methyl-1,6,9,12-tetraazabicyclo[11.3.1]heptadecane-2,5,8,11-tetraone]
9.09	114.9	COC[C@@H]1NC(=O)[C@H](C)N(Cc2c(F)cc(Cl)cc2Oc2ccc(-c3cnc(CN(C)C)n3C)cc2)C(=O)C[C@@H](Cc2cccc(C)[n+]2[O-])C(=O)N2CCC[C@@](Cc3ccc(Cl)cc3)(C2)N(C)C1=O [Compound 168, 2-(((3R, 7S, 10S, 13R)-6-(4-chloro-2-(4-(2-((dimethylamino)methyl)-1-methyl-1H-imidazol-5-yl)phenoxy)-6-fluorobenzyl)-13-(4-chlorobenzyl)-10-(methoxymethyl)-7,12-dimethyl-2,5,8,11-tetraoxo-1,6,9,12-tetraazabicyclo[11.3.1]heptadecan-3-yl)methyl)-6-methylpyridine 1-oxide]
7.22	95.2	CCc1ccc(CN2C(=O)C[C@@H]([C@@H]3CCc4ccccc43)C(=O)N(C)C[C@H](Cc3ccc(Cl)cc3)N(C)C(=O)[C@H](CO)NC(=O)[C@@H]2C)c(Oc2ccc(-c3cnc(CN(C)C)n3C)cc2)c1 [Compound 118, (2S, 5S, 8S, 12S)-8-(4-chlorobenzyl)-12-((S)-2,3-dihydro-1H-inden-1-yl)-1-(2-(4-(2-((dimethylamino)methyl)-1-methyl-1H-imidazol-5-yl)phenoxy)-4-ethylbenzyl)-5-(hydroxymethyl)-2,7,10-trimethyl-1,4,7,10-tetraazacyclotetradecane-3,6,11,14-tetraone]
9.20	111.0	COC[C@@H]1NC(=O)[C@H](C)N(Cc2ccc(Cl)cc2Oc2ccc(-c3cnc(CN(C)C)n3C)nc2)C(=O)C[C@@H](Cc2ccccc2)C(=O)N2CCC[C@@](Cc3ccc(Cl)cc3)(C2)N(C)C1=O [Compound 27, (3R,7S,10S,13R)-3-Benzyl-6-(4-chloro-2-((6-(2-((dimethylamino)methyl)-1-methyl-1H-imidazol-5-yl)pyridin-3-yl)oxy)benzyl)-13-(4-chlorobenzyl)-10-(methoxymethyl)-7,12-dimethyl-1,6,9,12-tetraazabicyclo[11.3.1]heptadecane-2,5,8,11-tetraone]
